Laboratory results from PubChem BioAssay (NCI).
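Briefly, cells in 96-well plates were exposed to five compound concentrations for 48 h, and endpoints were estimated by linear interpolation. Abbreviation: GI50, concentration required for 50% inhibition of growth. At the TGI there is no net growth.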 Residues, ends and D or L forms follow the SMILES beside them. *: point of attachment. Boc = CC(C)(C)OC(=O)*; OBn = c1ccc(CO*)cc1

How the values were obtained:
Test in all cases: inhibition of tumour cell growth, NCI panel, 48 h
[1] = test system: TK-10 renal
[2] = test system: HCT-15 colon
[3] = test system: SNB-19 CNS
[4] = test system: EKVX NSCLC
[5] = test system: OVCAR-8 ovarian
[6] = test system: NCI-H522 lung
[7] = test system: SK-OV-3 ovarian
[8] = test system: COLO 205 colon
[9] = test system: SF-295 CNS
[10] = test system: HCT-116 colon
[11] = test system: BT-549 breast
[12] = test system: SNB-75 CNS
[13] = test system: NCI-H226 lung
[14] = test system: OVCAR-5 ovarian
[15] = test system: A549 NSCLC
[16] = test system: UACC-257 melanoma
[17] = test system: NCI/ADR-RES ovarian
[18] = test system: ACHN renal
[19] = test system: HOP-62 NSCLC
[20] = test system: MCF7 breast
[21] = test system: DU-145 prostate
[22] = test system: UACC-62 melanoma
[23] = test system: A498 renal
[24] = test system: NCI-H460 lung
[25] = test system: RXF 393 renal
[26] = test system: 786-0 renal
[27] = test system: LOX IMVI melanoma
[28] = test system: SK-MEL-5 melanoma
[29] = test system: UO-31 renal
[30] = test system: M14 melanoma
[31] = test system: PC-3 prostate
[32] = test system: NCI-H23 lung
[33] = test system: SR leukemia
[34] = test system: CAKI-1 renal
[35] = test system: MOLT-4 leukemia
[36] = test system: HL-60(TB) leukemia
[37] = test system: KM12 colon
[38] = test system: OVCAR-3 ovarian
[39] = test system: HT29 colon
[40] = test system: SF-539 CNS
[41] = test system: OVCAR-4 ovarian
[42] = test system: MDA-MB-435
[43] = test system: SW-620 colon
[44] = test system: SK-MEL-2 melanoma
[45] = test system: RPMI-8226 leukemia
[46] = test system: SN12C renal
[47] = test system: MALME-3M melanoma
[48] = test system: CCRF-CEM leukemia
[49] = test system: HCC-2998 colon
[50] = test system: IGROV1 ovarian
[51] = test system: SK-MEL-28 melanoma
[52] = test system: MDA-MB-231 breast
[53] = test system: HOP-92 NSCLC
[54] = test system: SF-268 CNS

Question: What does the source list for `CCN1C/C(=C\c2ccc(Cl)cc2)C2=NN(c3ccccc3)C(c3ccc(Cl)cc3)C2C1` (configuration not stated)?
Answer: TGI [1]: > 100 µM; TGI [2]: > 100000 nM; TGI [3]: > 100 µM; TGI [4]: > 100 µM; TGI [5]: > 100 µM; TGI [6]: > 100 µM; TGI [7]: > 100 µM; TGI [8]: > 100 µM; TGI [9]: > 100 µM; TGI [10]: > 100 µM; TGI [11]: > 100 µM; TGI [12]: > 100 µM; TGI [13]: > 100 µM; TGI [14]: > 100 µM; TGI [15]: > 100 µM; TGI [16]: > 100 µM; TGI [17]: > 100 µM; TGI [18]: > 100 µM; TGI [19]: > 100 µM; TGI [20]: > 100 µM; TGI [21]: > 100000 nM; TGI [22]: > 100 µM; TGI [23]: > 100 µM; TGI [24]: > 100000 nM; TGI [25]: > 100000 nM; TGI [26]: > 100 µM; TGI [27]: > 100000 nM; TGI [28]: > 100 µM; TGI [29]: > 100000 nM; TGI [30]: > 100 µM; TGI [31]: > 100 µM; TGI [32]: > 100000 nM

Question: Which results are given for `NCCCCCCNc1cc(-c2cccc(OC(F)(F)F)c2)nc2ccc(N3CCCC3)cc12`?
Answer: GI50 [1]: 1880 nM; TGI [1]: 3.36 µM; GI50 [33]: 349 nM; TGI [33]: 1730 nM; GI50 [34]: 1720 nM; TGI [34]: 3100 nM; GI50 [35]: 1600 nM; TGI [35]: 3.59 µM; GI50 [4]: 1640 nM; TGI [4]: 3.01 µM; GI50 [6]: 1660 nM; TGI [6]: 3.1 µM; GI50 [36]: 2010 nM; TGI [36]: 4 µM; GI50 [9]: 1750 nM; TGI [9]: 3.15 µM; GI50 [37]: 1790 nM; TGI [37]: 3.38 µM; GI50 [38]: 1680 nM; TGI [38]: 3.14 µM; GI50 [12]: 1570 nM; TGI [12]: 2.94 µM; GI50 [39]: 1620 nM; TGI [39]: 3.06 µM; GI50 [40]: 1590 nM; TGI [40]: 3000 nM; GI50 [14]: 1830 nM; TGI [14]: 3.28 µM; GI50 [18]: 1740 nM; TGI [18]: 3.11 µM; GI50 [21]: 1550 nM; TGI [21]: 2940 nM; GI50 [41]: 1590 nM; TGI [41]: 3.17 µM; GI50 [23]: 1460 nM; TGI [23]: 2.81 µM; GI50 [25]: 1220 nM; TGI [25]: 2520 nM; GI50 [42]: 1640 nM; TGI [42]: 3.01 µM; GI50 [43]: 1480 nM; TGI [43]: 3020 nM

Question: What does the source list for `CC(C)C(NC(=O)OC(C)(C)C)C(=O)N1CCCC1C(=O)OCc1ccccc1` (stereo not drawn) (Boc-Val-Pro-OBn; configuration not given here)?
Answer: GI50 [33]: 90.6 µg/mL; GI50 [44]: 46.3 µg/mL

Question: How did the GI50 [1] turn out when `COc1cccc2c(=O)c3c(sc12)c(NCCCN)nc1ccccc13` was run?
Answer: 1990 nM

Question: What about the TGI [1] of the same compound?
Answer: 3.63 µM

Question: What about the GI50 [2] of the same compound?
Answer: 1320 nM

Question: What about the TGI [2] of the same compound?
Answer: 2700 nM

Question: And the GI50 [3]?
Answer: 1610 nM

Question: What about the TGI [3] of the same compound?
Answer: 3.04 µM

Question: And the GI50 [34]?
Answer: 1480 nM

Question: And the TGI [34]?
Answer: 2820 nM

Question: And the GI50 [4]?
Answer: 1430 nM

Question: And the TGI [4]?
Answer: 2.81 µM

Question: What about the GI50 [6] of the same compound?
Answer: 1810 nM

Question: What about the TGI [6] of the same compound?
Answer: 3.65 µM

Question: What about the GI50 [45] of the same compound?
Answer: 2110 nM

Question: And the TGI [45]?
Answer: 4.92 µM

Question: What about the GI50 [36] of the same compound?
Answer: 1980 nM

Question: What about the TGI [36] of the same compound?
Answer: 3.94 µM

Question: What about the GI50 [46] of the same compound?
Answer: 1450 nM

Question: And the TGI [46]?
Answer: 2850 nM

Question: What about the GI50 [47] of the same compound?
Answer: 1580 nM

Question: And the TGI [47]?
Answer: 2990 nM

Question: What about the GI50 [44] of the same compound?
Answer: 2000 nM

Question: What about the TGI [44] of the same compound?
Answer: 4.15 µM

Question: And the GI50 [9]?
Answer: 1770 nM

Question: What about the TGI [9] of the same compound?
Answer: 3.25 µM

Question: And the GI50 [37]?
Answer: 1620 nM

Question: What about the TGI [37] of the same compound?
Answer: 3.21 µM

Question: What about the GI50 [38] of the same compound?
Answer: 1410 nM

Question: What about the TGI [38] of the same compound?
Answer: 2.91 µM

Question: What about the GI50 [11] of the same compound?
Answer: 10.8 µM

Question: And the TGI [11]?
Answer: 26.5 µM

Question: And the GI50 [12]?
Answer: 1640 nM

Question: And the TGI [12]?
Answer: 3.2 µM

Question: And the GI50 [13]?
Answer: 1520 nM

Question: And the TGI [13]?
Answer: 3.15 µM

Question: What about the GI50 [39] of the same compound?
Answer: 1410 nM

Question: What about the TGI [39] of the same compound?
Answer: 2.99 µM

Question: What about the GI50 [40] of the same compound?
Answer: 1600 nM

Question: What about the TGI [40] of the same compound?
Answer: 2970 nM

Question: And the GI50 [14]?
Answer: 1650 nM

Question: And the TGI [14]?
Answer: 3.01 µM

Question: What about the GI50 [16] of the same compound?
Answer: 2000 nM

Question: And the TGI [16]?
Answer: 4.17 µM

Question: What about the GI50 [18] of the same compound?
Answer: 1320 nM

Question: And the TGI [18]?
Answer: 2.59 µM

Question: And the GI50 [21]?
Answer: 1480 nM

Question: And the TGI [21]?
Answer: 2820 nM

Question: What about the GI50 [22] of the same compound?
Answer: 1640 nM

Question: What about the TGI [22] of the same compound?
Answer: 3.05 µM

Question: What about the GI50 [41] of the same compound?
Answer: 1730 nM

Question: And the TGI [41]?
Answer: 3.64 µM

Question: What about the GI50 [23] of the same compound?
Answer: 1680 nM

Question: And the TGI [23]?
Answer: 3.15 µM

Question: And the GI50 [24]?
Answer: 745 nM

Question: And the TGI [24]?
Answer: 2230 nM

Question: What about the GI50 [48] of the same compound?
Answer: 1910 nM

Question: What about the TGI [48] of the same compound?
Answer: 4.86 µM

Question: What about the GI50 [25] of the same compound?
Answer: 1530 nM

Question: What about the TGI [25] of the same compound?
Answer: 2960 nM

Question: And the GI50 [26]?
Answer: 1650 nM

Question: What about the TGI [26] of the same compound?
Answer: 3.14 µM

Question: What about the GI50 [49] of the same compound?
Answer: 1720 nM

Question: What about the TGI [49] of the same compound?
Answer: 3.26 µM

Question: What about the GI50 [50] of the same compound?
Answer: 858 nM

Question: And the TGI [50]?
Answer: 2160 nM

Question: What about the GI50 [51] of the same compound?
Answer: 1870 nM

Question: And the TGI [51]?
Answer: 3.36 µM

Question: What about the GI50 [52] of the same compound?
Answer: 1290 nM

Question: What about the TGI [52] of the same compound?
Answer: 2670 nM

Question: What about the GI50 [27] of the same compound?
Answer: 1300 nM

Question: And the TGI [27]?
Answer: 2680 nM

Question: What about the GI50 [42] of the same compound?
Answer: 1800 nM

Question: And the TGI [42]?
Answer: 3.34 µM

Question: And the GI50 [43]?
Answer: 1300 nM

Question: What about the TGI [43] of the same compound?
Answer: 2810 nM

Question: And the GI50 [28]?
Answer: 1690 nM

Question: And the TGI [28]?
Answer: 3.07 µM

Question: And the GI50 [29]?
Answer: 832 nM

Question: What about the TGI [29] of the same compound?
Answer: 2180 nM

Question: And the GI50 [53]?
Answer: 1270 nM

Question: And the TGI [53]?
Answer: 2750 nM

Question: What about the GI50 [31] of the same compound?
Answer: 1580 nM

Question: And the TGI [31]?
Answer: 3.14 µM

Question: And the GI50 [54]?
Answer: 1480 nM

Question: And the TGI [54]?
Answer: 3.32 µM

Question: And the GI50 [32]?
Answer: 1560 nM

Question: And the TGI [32]?
Answer: 2990 nM
